Series [1] relates to bovine retinal capillary endothelial cells. In words: Activation of bovine retinal capillary endothelial cells by phorbol esters (PA activity, cell number). The conditions noted are these: for increase in endothelial cell activation (in words): phorbol esters known to activate PKC vs. 4-α analogues. In kind it is cell-based. The source says: Retinal capillary endothelial cell cultures were initiated from bovine eyes using a modification of the procedure of Buzney et al., Investigative Ophthalmology and Visual Sciences, 24: 470-480 (1983). Bovine eyes were transported on ice from a local abattoir. Extraocular muscle was trimmed from the eye, and the eye bisected posterior to the ora serrata. The vitreous and anterior portion of the eye were discarded, and the neuro-retina was gently dissected from the posterior eyecup. The retinas from 20 cattle were pooled and homogenized (5 strokes of a Teflon/glass homogenizer) in Hank's saline. The homogenate was passed through a 350μ filter to remove large debris and a 210μ filter to remove large vessels. The microvessels were trapped on a 85μ filter. The microvessels were resuspended in Hank's saline and digested with 7.5 mg/ml bacterial collagenase (Boeringher Mannheim, Indianapolis) Hank's saline for 1 hour at 37° C. The cells were pelleted by centrifugation (100 xg, 10 min), resuspended in 5 ml Endothelial Growth Media (EGM, Clonetics) and seeded in a gelatin-coated T-25 flask. After 24 hours the cells were trypsinized and replated in a gelatin coated T225. At 7 days and again at 14 days the cultures were labeled with acetylated lipoproteins labeled with the fluorescent probe (1,1'-dioctadecyl-3,3,3,3,-tetramethyl-indocarbocyanine perchlorate). The endothelial cells were separated from contaminating cell types using a fluorescent cell sorter as described in Voyta et al., J. Cell Biology, 99: 2034-2040 (1984).
Retinal capillary endothelial cells were seeded into 96-well plates and grown to confluence (10^5 cells/well) in EGM containing 10% fetal bovine serum (FBS). The media was changed to Dubecco's Modified Eagle's Medium with 10% fetal bovine serum 24 hours prior to the assay. The cells were treated with 50 nM 4-β phorbol 12,13-dibutyrate (4-β PDBu) to activate PKC and produce the activated endothelial phenotype characteristic of the diabetic state. The activated cells were treated with a series of dilutions of the test compounds. The phorbol esters and the test compounds were dissolved in DMSO before adding to the culture media. The cultures were incubated at 37° C. for 48 hours. Following treatment, the cells were lysed with 25mM NH4 OH in 0.5% triton X-100.
(§1) The activation of bovine retinal capillary endothelial cells was monitored through alterations in cellular plasminogen activator (PA) activity in the cell lysates. Plasminogen activator activity was determined in a 50 μl aliquot of cell lysate using the synthetic substrate H-D-valyl-L-leucyl-lysine-p-nitroaniline dihydrochloride (Kabi).
Dose-response curves generated for 4-β PDBu and 4-β PMA indicated […] of 50 nM and 5 nM respectively. Elevated PA activity was observed only after prolonged (at least 8 hours) stimulation with phorbol esters. The PA activity continued to increase in a time and dose dependent manner for up to 72 hours, but constant stimulation with phorbol ester was required to maintain endothelial cell activation.

Series [2] shares this test system. Put plainly: Inhibition of phorbol ester-induced endothelial cell activation, plasminogen activator (PA) activity in cell lysates. In kind it is cell-based. The note with it: Bos taurus, 4-β PDBu (50 nM) activated cells, 48 hours.
Excerpt: Retinal capillary endothelial cell cultures were initiated from bovine eyes using a modification of the procedure of Buzney et al., Investigative Ophthalmology and Visual Sciences, 24: 470-480 (1983). Bovine eyes were transported on ice from a local abattoir. Extraocular muscle was trimmed from the eye, and the eye bisected posterior to the ora serrata. The vitreous and anterior portion of the eye were discarded, and the neuro-retina was gently dissected from the posterior eyecup. The retinas from 20 cattle were pooled and homogenized (5 strokes of a Teflon/glass homogenizer) in Hank's saline. The homogenate was passed through a 350μ filter to remove large debris and a 210μ filter to remove large vessels. The microvessels were trapped on a 85μ filter. The microvessels were resuspended in Hank's saline and digested with 7.5 mg/ml bacterial collagenase (Boeringher Mannheim, Indianapolis) Hank's saline for 1 hour at 37° C. […]
as §1

In series [3] the test system is Glucose-Induced Vascular Dysfunction in Normal Rats. In words: Glucose-induced vascular dysfunction in rat granulation tissue chamber model (permeability and blood flow). In kind it is in vivo. The conditions noted are these: twice daily for 7 days, 30-35 mM glucose. The protocol:
Representative compounds were evaluated in situ for their ability to block the increase in blood flow and permeability induced by high glucose in a rat tissue granulation tissue chamber model. In this model circles of skin were removed from the backs of normal rats and stainless steel screw-cap chambers were mounted. New granulation tissue formed within the chambers. Addition of 30-35 mM glucose (0.5 ml) twice daily to the chambers for 7 days induced a vascular dysfunction similar to that of diabetes--that is there was an increase in blood vessel permeability and an increase in blood flow. Blood flow was measured through the use of radiolabeled microspheres, and permeability was quantified using a dual label technique with iodinated albumin (^125 I/^131 I). Details of the model can be found in Tilton, et al., Diabetes38: 1258-1270 (1989). and Williamson, et al., J. Clin. Invest. 85: 1167-1172 (1990).
Representative compounds were dissolved in DMSO and diluted in a balanced salt solution to achieve a final concentration of 20 or 50 μM. The granulation chamber tissue was treated twice daily for 7 days to determine their effects on glucose-induced vascular dysfunction. Addition of 30-35 mM glucose to the granulation chamber induced a vascular dysfunction characterized by increased vessel permeability and increased blood flow.

The subject of series [4] is vasculature in streptozotocin-diabetic rats. In words: Microvascular dysfunction associated with streptozotocin-induced diabetes in rats (permeability and blood flow). In kind it is in vivo, rat. The conditions noted are these: 0.1% in diet, 4 to 7-week period. The protocol:
Representative compounds were further evaluated for their ability to block the microvascular dysfunction associated with streptozotocin-induced diabetes. Rats were made diabetic with an injection of streptozotocin, and the rats were feed ad libitum with a diet containing 0.1% of a representative compound. Blood flow was measured through the use of radiolabeled microspheres while permeability was quantified using a dual label technique with iodinated albumin (^125 I/^131 I). Details of the model can be found in Tilton et al., Diabetes38: 1258-1270 (1989), and Williamson et al., J. Clin. Invest. 85: 1167-1172 (1990).
Blood flow also was elevated on induction of diabetes in these tissues. In contrast, vascular function was not affected in the brain or muscle.

The values below come from patent publication US5281619A, “Therapy for diabetic complications” (Eli Lilly and Company, priority 1993, dated 1994).

Each structure is given as a SMILES string.

Regarding `CCCCCCCCCCCCCC(=O)OC1C(C)C2(O)C(C=C(CO)CC3(O)C(=O)C(C)=CC32)C2C(C)(C)C12OC(C)=O` (stereo not drawn) [4-β PMA], the concentration for half-maximal inhibition (IC50) (usually the concentration that gives 50% inhibition) in series [1] (Bos taurus, Endothelial cell, dose-response curves for phorbol esters) came out at 5 nM. In series [1], the “increase in endothelial cell activation (in words)” value was “increase in activation occurred”.

`CCCCCCCCCCCCCC(=O)OC1C(C)C2(O)C(C=C(CO)CC3(O)C(=O)C(C)=CC32)C2C(C)(C)C12OC(C)=O` (stereo not drawn) [4-α PMA]: the “increase in endothelial cell activation (in words)” value in series [1] is given as “not”.

In the case of `CCCC(=O)OC1C(C)C2(O)C(C=C(CO)CC3(O)C(=O)C(C)=CC32)C2C(C)(C)C12OC(=O)CCC` (stereo not drawn) [4-α PDBu], the “increase in endothelial cell activation (in words)” value in series [1] is “not”.

For `N#CC1=C(N)Oc2c(ccc3ccccc23)C1c1ccccc1[N+](=O)[O-]` (stereo not shown) [Example 5, 2-Amino-4-(2-nitrophenyl)-4H-naphtho[1,2-b]pyran-3-carbonitrile], in series [2], half-maximal inhibition (IC50) was put at 500 nM. In series [3] (20 μM), the BSA Clearance was determined as 163 µg/g/min and the “Blood Flow” value was found to be 0.231 mL/g/min.

`CCCC(=O)OC1C(C)C2(O)C(C=C(CO)CC3(O)C(=O)C(C)=CC32)C2C(C)(C)C12OC(=O)CCC` (stereo not drawn) [4-β PDBu, 4-β phorbol 12,13-dibutyrate]: in series [1] (confluent cells, 48 hours), the “increase in PA activity associated with the cell layer” value is 12 fold, the “increase in PA released into the media” value stood at 12 fold and the “increase in cell number” value was “two fold increase in cell number”. Further, in series [1], the “increase in endothelial cell activation (in words)” value is “increase in activation occurred”.

Consider `N#CC1=C(N)Oc2c(ccc3ccccc23)C1c1cccc([N+](=O)[O-])c1` (stereo not shown) [Example 6, 2 Amino-4-(3-nitrophenyl)-4H-naphtho[1,2-b]pyran-3-carbonitrile], for which the “development of increased permeability and blood flow (in words)” value in series [4] was “prevented the development of increased permeability and blood flow”. Further, the “Permeability, Aorta” value in series [4] (aorta, diabetic rats) came to 99.00 µg/g/min. Also, in series [4] (brain, diabetic rats), the “Blood Flow, Brain” value was determined as 0.88 mL/min/g and the “Permeability, Brain” value amounted to 19.00 µg/g/min. Moreover, the “Permeability, Muscle” value in series [4] (muscle, diabetic rats) was 63.00 µg/g/min. In series [4] (nerve, diabetic rats), the “Blood Flow, Nerve” value was 0.05 mL/min/g and the “Permeability, Nerve” value amounted to 63.00 µg/g/min. Also, in series [4] (retina, diabetic rats), the “Blood Flow, Retina” value was 0.40 mL/min/g and the “Permeability, Retina” value was 59.00 µg/g/min. In addition, half-maximal inhibition in series [2] (IC50) was put at 25 nM. For the same compound, in series [3] (20 μM), the BSA Clearance was determined as 179 µg/g/min and the “Blood Flow” value came out at 0.184 mL/g/min. In addition, in series [3] (50 μM), the BSA Clearance amounted to 158 µg/g/min and the “Blood Flow” value was 0.168 mL/g/min.
